Tests used:
Format in all cases: biochemical
[1] = molecular target: T1, GST-TIE2 (intracellular domains of human TIE2) (Homo sapiens, UniProt Q02763); experiment: TIE-2 Enzyme Assay (TIE2-E2), LANCE method; conditions: for IC50: read-out: TIE2 PIC50 TIE2-E2 assay
T1 construct: made in house
Description: TIE-2 Enzyme Assay (TIE2-E2
The TIE-2 enzyme assay uses the LANCE method (Wallac) and GST-TIE2, baculovirus-expressed recombinant constructs of the intracellular domains of human TIE2 (amino acids 762–1104, GenBank Accession # L06139) tagged by GST). The method measures the ability of the purified enzymes to catalyse the transfer of the γ-phosphate from ATP onto tyrosine residues in a biotinylated synthetic peptide, D1–15 (biotin-C6-LEARLVAYEGWVAGKKKamide). This peptide phosphorylation is detected using the following procedure: for enzyme preactivation, GST-TIE2 is incubated for 2 hours at room temperature with 80 μM ATP, 10 mM MgCl2, 0.1 mg/ml BSA, 0.01% Tween 20 and 1 mM DTT in 100 mM HEPES buffer (pH7.4). 5 nM preactivated GST-TIE2 is incubated for 2 hours at room temperature in 96 well plates with 1 uM D1–15 peptide, 80 uM ATP, 10 mM MgCl2, 0.1 mg/ml BSA, 0.01% Tween 20 and titrated test compound (diluted from a 10 mM stock in DMSO, final DMSO concentration is 2.4%) in 100 mM HEPES (pH7.4). The reaction is stopped by the addition of EDTA (final concentration 45 mM). Streptavidin linked-APC (allophycocyanin, PerkinElmer) and europium-labeled anti-phosphotyrosine antibody (PerkinElmer) are then added at the final concentration of 8 nM and 1 nM, respectively. The APC signal is measured using an Wallac Multilabel 1420 counter. (Wallac Berthold Japan). The percent inhibition of activity is calculated relative to blank control wells. The concentration of test compound that inhibits 50% of activity (IC50) is interpolated using nonlinear regression (Levernberg-Marquardt) and the equation, y=Vmax (1−x/(K+x))+Y2, where “K” is equal to the IC50. The IC50 values are converted to pIC50 values, i.e., −log IC50 in Molar concentration.

[2] = molecular target: T2, GST-VEGFR2 (Homo sapiens, UniProt P35968); experiment: VEGF-R2 Enzyme Assay (VEGF-E2), LANCE method; conditions: for IC50: read-out: VEGFR2 PIC50 VEGFR-E2 assay
T2 construct: GST-VEGFR2, baculovirus expressed recombinant constructs of the intracellular domains; made in house

[3] = molecular target: T3, catalytic domain of human VEGFR3 (Homo sapiens, UniProt P35916, H890Q); experiment: VEGFR-3 Homogenous Time-Resolved Fluorescence Assay (VEGFR-3-HTRF); conditions: for IC50: read-out: VEGFR3 PIC50 VEGFR-3-HTRF assay
T3 construct: made in house; host or cells: Sf9 insect cells (baculovirus, pFastBac1)
Description: VEGFR—3-Homogenous Time-Resolved Fluorescence Assay (VEGFR-3-HTRF)
This assay assesses Vascular Endothelial Growth Factor 3 (VEGFR3) tyrosine kinase inhibitory activity in substrate phosphorylation assays. The assay examines the ability of small molecule organic compounds to inhibit the tyrosine phosphorylation of a peptide substrate.
The substrate phosphorylation assays use the VEGFR3 catalytic domain, which is expressed in Sf. 9 insect cells as an amino-terminal GST-tagged fusion protein. The catalytic domain of human VEGFR3 (AA residues #819–1298 based upon GenBank Accession #XM003852) is cloned by PCR from human Placenta Marathon Ready cDNA (Clontech). The PCR product is subcloned into pFastBac1 vector containing an N-terminal GST tag. The resulting pFB/GST/VEGFR3icd vector is used to generate a recombinant baculovirus for protein expression. The VEGFR3 catalytic domain translated sequence is:
Autophosphorylation allows enzymes to be fully activated prior to addition to peptide substrates. The assays are performed using enzyme that has been activated by autophosphorylation via preincubation in buffer with ATP and magnesium. Activated enzyme is then diluted and added to titrated compound and the substrate mix.
200 nM VEGFR3 enzyme is activated for 45 minutes at room temperature by incubating the enzyme in buffer containing 100 mM HEPES (pH7.2), 75 μM ATP, 0.3 mM DTT, 0.1 mg/mL BSA, and 10 mM MgCl2. After activation, VEGFR3 is diluted 100-fold into 2× dilution buffer: 200 mM HEPES (pH 7.5), 0.2 mg/mL BSA, 0.6 mM DTT. 20 μL of the diluted enzyme mix is added to 20 μL of 2× substrate mix (150 μM ATP, 20 mM MgCl2, 0.72 μM biotinylated peptide) in the assay plates. Final assay conditions are: 100 mM HEPES (pH 7.2), 75 μM ATP, 10 mM MgCl2, 0.1 mg/mL BSA, 0.3 mM DTT, 0.36 μM biotinylated peptide, and 1 nM VEGFR3 enzyme. Assay plates are incubated for 1.5 hours at room temperature before the addition of 30 μL 100 mM EDTA to the wells to stop the enzymatic reaction. 40 μL/well of HTRF mix are then added to the assay plates for the detection of phosphorylated substrate. Final assay concentrations are: 100 mM HEPES (pH7.2), 0.1 mg/mL BSA, 15 nM streptavidin-labeled allophycocyanin (PerkinElmer), and 1 nM europium-labeled anti-phosphotyrosine antibody (PerkinElmer). Assay plates are left unsealed and are counted in a Wallac Multilabel Counter 1420 (PerkinElmer).
The data for dose responses are plotted as % Control calculated with the data reduction formula 100*(U1–C2)/(C1–C2) versus concentration of compound where U is the unknown value, C1 is the average control value obtained for DMSO , and C2 is the average control value obtained for 0.1M EDTA. Data are fitted to the curve described by: y=((Vmax*x)/(K+x)) where Vmax is the upper asymptote and K is the IC50.

T3 sequence (P35916 with tags, fused parts or gaps isoform P35916-1 H890Q): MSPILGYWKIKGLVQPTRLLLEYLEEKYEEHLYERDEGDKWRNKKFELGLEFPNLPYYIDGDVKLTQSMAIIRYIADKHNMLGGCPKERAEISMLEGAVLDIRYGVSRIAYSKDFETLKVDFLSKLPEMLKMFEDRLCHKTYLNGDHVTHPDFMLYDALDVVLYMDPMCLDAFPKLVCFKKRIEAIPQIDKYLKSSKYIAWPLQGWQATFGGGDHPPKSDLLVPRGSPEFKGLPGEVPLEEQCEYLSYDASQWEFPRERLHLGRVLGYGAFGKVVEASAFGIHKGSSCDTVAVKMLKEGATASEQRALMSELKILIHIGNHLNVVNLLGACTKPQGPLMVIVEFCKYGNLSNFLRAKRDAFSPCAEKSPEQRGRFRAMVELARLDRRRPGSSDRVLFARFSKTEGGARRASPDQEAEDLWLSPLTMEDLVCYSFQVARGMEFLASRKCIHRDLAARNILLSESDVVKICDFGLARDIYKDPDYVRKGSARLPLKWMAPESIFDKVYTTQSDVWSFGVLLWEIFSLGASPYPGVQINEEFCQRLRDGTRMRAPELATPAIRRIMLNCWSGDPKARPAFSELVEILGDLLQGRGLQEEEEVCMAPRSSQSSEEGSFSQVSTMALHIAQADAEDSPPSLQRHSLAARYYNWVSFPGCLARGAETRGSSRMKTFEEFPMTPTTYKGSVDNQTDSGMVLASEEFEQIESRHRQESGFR
T1 sequence (Q02763 762-1104): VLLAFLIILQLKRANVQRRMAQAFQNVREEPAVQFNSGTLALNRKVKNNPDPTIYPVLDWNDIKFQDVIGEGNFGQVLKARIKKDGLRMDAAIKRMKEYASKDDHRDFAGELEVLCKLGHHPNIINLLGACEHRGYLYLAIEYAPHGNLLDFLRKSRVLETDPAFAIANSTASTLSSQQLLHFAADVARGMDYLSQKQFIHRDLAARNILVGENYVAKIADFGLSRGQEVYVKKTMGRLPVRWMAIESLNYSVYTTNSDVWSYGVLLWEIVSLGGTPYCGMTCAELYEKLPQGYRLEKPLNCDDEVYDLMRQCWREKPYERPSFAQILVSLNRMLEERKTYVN
T2 sequence (P35968 786-1356 limits assumed): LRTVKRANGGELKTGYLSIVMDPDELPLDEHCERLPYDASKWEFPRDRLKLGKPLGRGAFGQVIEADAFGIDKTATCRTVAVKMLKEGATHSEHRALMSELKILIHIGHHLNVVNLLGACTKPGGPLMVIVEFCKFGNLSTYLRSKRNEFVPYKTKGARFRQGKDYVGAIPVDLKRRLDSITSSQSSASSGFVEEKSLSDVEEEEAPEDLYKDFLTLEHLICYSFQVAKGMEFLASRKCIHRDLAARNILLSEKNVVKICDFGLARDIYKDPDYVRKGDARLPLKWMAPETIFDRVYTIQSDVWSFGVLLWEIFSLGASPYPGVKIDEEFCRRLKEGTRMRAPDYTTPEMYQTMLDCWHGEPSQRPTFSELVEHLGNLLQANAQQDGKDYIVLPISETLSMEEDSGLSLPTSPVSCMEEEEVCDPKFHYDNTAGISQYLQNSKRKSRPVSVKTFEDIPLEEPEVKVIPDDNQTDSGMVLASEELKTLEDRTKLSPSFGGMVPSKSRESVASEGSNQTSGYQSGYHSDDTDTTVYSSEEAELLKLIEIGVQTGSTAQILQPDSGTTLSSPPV

Row | Compound | IC50 [1] [nM] | IC50 [2] [nM] | IC50 [3] [nM] | TIE2 PIC50 TIE2-E2 assay [1] | VEGFR2 PIC50 VEGFR-E2 assay [2] | VEGFR3 PIC50 VEGFR-3-HTRF assay [3]
1 | CC(=O)NCCNc1ncc2c(-c3ccc(NC(=O)Nc4cc(C(F)(F)F)ccc4F)cc3)nn(C)c2n1 [Example 98] | ≤ 39.8 | 1000 to 10000 | > 10000 |  |  | 
2 | Cn1nc(-c2ccc(NC(=O)Nc3cc(C(F)(F)F)ccc3F)cc2)c2cnc(NCCCNS(C)(=O)=O)nc21 [Example 96, N-[3-(3-{4-[3-(2-Fluoro-5-trifluoromethyl-phenyl)-ureido]-phenyl}-1-methyl-1H-pyrazolo[3,4-d]pyrimidin-6-ylamino)-propyl]-methanesulfonamide] | 39.8 to 100 | 1000 to 10000 | 1000 to 10000 |  |  | 
3 | Cn1nc(-c2ccc(NC(=O)Nc3cc(C(F)(F)F)ccc3F)c(F)c2)c2cnc(NCCCn3ccnc3)nc21 [Example 132, 1-(2-Fluoro-5-trifluoromethyl-phenyl)-3-{2-fluoro-4-[1-methyl-6-(3-(imidazol-1-ylpropylamino)-1H-pyrazolo[3,4-d]pyrimidin-3-yl)-phenyl]} urea] | ≤ 39.8 | 1000 to 10000 | 1000 to 10000 |  |  | 
4 | 2,5-Dichloro-{4-{1-methyl-6-[3-(4-methyl-piperazin-1yl) -propylamino]-1H-pyrazolo[3,4-d]pyrimidin-3-yl}-phenyl}-thiophene-3-sulfonamide [Example 66] |  |  |  | +++ (+++ = PIC50 = 7.00 to less than 7.40) | −− (−− = PIC50 less than 5.00) | −− (−− = PIC50 less than 5.00)
5 | 1-(2-fluoro-5-trifluoromethyl-phenyl)-3-(4-{methyl-6-(2-oxopyrrolidin-2-yl)-1H-pyrazolo[3,4-d]pyrimidin-3-yl}-phenyl)-urea [Example 61] |  |  |  | +++ (+++ = PIC50 = 7.00 to less than 7.40) | ++ (++ = PIC50 = 6.00 to less than 7.00) | + (+ = PIC50 = 5.00 to less than 6.00)
6 | COCCNc1ncc2c(-c3ccc(NC(=O)Nc4cc(C(F)(F)F)ccc4F)cc3)nn(C)c2n1 [Example 32] |  |  |  | +++ (+++ = PIC50 = 7.00 to less than 7.40) | + (+ = PIC50 = 5.00 to less than 6.00) | + (+ = PIC50 = 5.00 to less than 6.00)
7 | Cn1nc(-c2ccc(NC(=O)Nc3cc(C(F)(F)F)ccc3F)c(F)c2)c2cnc(NCCN3CCOCC3)nc21 [Example 49] | ≤ 39.8 | 1000 to 10000 | 1000 to 10000 |  |  | 
8 | Cn1cccc1CCNc1ncc2c(-c3ccc(NC(=O)Nc4cc(C(F)(F)F)ccc4F)cc3)nn(C)c2n1 [Example 101, 1-(2-Fluoro-5-trifluoromethyl-phenyl)-3-{4-[1-methyl-6-(2-[1-methyl-1H-pyrrol-2-yl]-ethylamino)-1H-pyrazolo[3,4-d]pyrimidin-3-yl]-phenyl} urea] | ≤ 39.8 | 1000 to 10000 | 1000 to 10000 |  |  | 
9 | Cn1nc(-c2ccc(NS(=O)(=O)c3cccc(Cl)c3Cl)cc2)c2cnc(NCCCO)nc21 [Example 112, 2,3-Dichloro-N-{4-[1-methyl-6-(3-hydroxy-propylamino)-1H-pyrazolo[3,4-d]pyrimidin-3-yl]-phenyl}-benzenesulfonamide] | > 10000 | 1000 to 10000 | 1000 to 10000 |  |  | 
10 | Cn1nc(-c2ccc(NC(=O)Nc3cc(C(F)(F)F)ccc3F)cc2)c2cnc(NCc3ccncc3)nc21 [Example 143, 1-(2-Fluoro-5-trifluoromethyl-phenyl)-3-{4-[(1-methyl-6-(pyridin-4-ylmethyl)-amino)-1H-pyrazolo[3,4-d]pyrimidin-3-yl]-phenyl} urea] | 100 to 1000 | 1000 to 10000 | > 10000 |  |  | 
11 | Cn1nc(-c2ccc(NC(=O)Nc3cc(C(F)(F)F)ccc3F)cc2)c2cnc(NCCN3CCOCC3)nc21 [Example 31, 1-(2-Fluoro-5-trifluoromethyl-phenyl)-3-{4-[1-methyl-6-(2-morpholin-4-yl-ethylamino)-1H-pyrazolo[3,4-d]pyrimidin-3-yl]-phenyl}urea] | 39.8 to 100 | 1000 to 10000 | 1000 to 10000 |  |  | 
12 | Cn1nc(-c2ccc(NS(=O)(=O)c3cccc(Cl)c3Cl)cc2)c2cnc(NCCCCNS(C)(=O)=O)nc21 [Example 122, 2,3-Dichloro-N-{4-[1-methyl-6-(4-methanesulfonylamino-butylamino)-1H-pyrazolo[3,4-d]pyrimidin-3-yl]-phenyl}-benzenesulfonamide] | 1000 to 10000 | > 10000 | 1000 to 10000 |  |  | 
13 | Cn1nc(-c2ccc(NS(=O)(=O)c3cccc(Cl)c3Cl)cc2)c2cnc(NCCCCCO)nc21 [Example 114, 2,3-Dichloro-N-{4-[1-methyl-6-(5-hydroxy-pentylamino)-1H-pyrazolo[3,4-d]pyrimidin-3-yl]-phenyl}-benzenesulfonamide] | 1000 to 10000 | 1000 to 10000 | 1000 to 10000 |  |  | 
14 | Cn1nc(-c2ccc(NC(=O)Nc3ccc4ccccc4c3)cc2)c2cnc(NCCN3CCOCC3)nc21 [Example 39, 1-{4-[1-Methyl-6-(2-morpholin-4-yl-ethylamino)-1H-pyrazolo[3,4-d]pyrimidin-3-y]-phenyl}-3-naphthalen-2-yl-urea] | 100 to 1000 | 1000 to 10000 | 1000 to 10000 |  |  | 
15 | Cn1nc(-c2ccc(NS(=O)(=O)c3cccc(Cl)c3Cl)cc2)c2cnc(NCCCN3CCCC3=O)nc21 [Example 67] | 1000 to 10000 | 1000 to 10000 | 1000 to 10000 |  |  | 
16 | Cn1nc(-c2ccc(NC(=O)Nc3cc(C(F)(F)F)cc(C(F)(F)F)c3)cc2)c2cnc(NCCN3CCOCC3)nc21 [Example 41, 1-(Bis-trifluoromethyl-phenyl)-3-{4-[1-methyl-6-(2-morpholin-4-yl-ethylamino)-1H-pyrazolo[3,4-d]pyrimidin-3-yl]-phenyl}-urea] |  |  |  | ++ (++ = PIC50 = 6.00 to less than 7.00) | −− (−− = PIC50 less than 5.00) | 
17 | CC(=O)Nc1ncc2c(-c3ccc(NC(=O)Nc4cc(C(F)(F)F)ccc4F)cc3)nn(C)c2n1 [Example 70] | 100 to 1000 | 1000 to 10000 |  |  |  | 
18 | CN(CCN1CCOCC1)c1ncnc2[nH]nc(-c3ccc(NC(=O)Nc4cc(C(F)(F)F)ccc4F)c(C(F)(F)F)c3)c12 [Example 56, 1-(2-Fluoro-5-trifluoromethyl-phenyl)-3-{[methyl-(2-morpholin-4-yl-ethylamino)-1H-pyrazolo[3,4-d]pyrimidin-3-yl]-(2-trifluoromethyl-phenyl)}-urea] |  |  |  | + (+ = PIC50 = 5.00 to less than 6.00) | + (+ = PIC50 = 5.00 to less than 6.00) | 

Reference: patent US7217710B2, “Substituted pyrazolopyrimidines” (SmithKline Beecham Corporation, priority 2001, dated 2007)
